Experimental findings from PubChem BioAssay AID1224921 (Broad Institute, 2016) are described below.

Structures are written as SMILES. The source made the active and inactive calls. How the calls were made is not given here. Bounds are passed on as bounds.

Broadly, the AC50 is the concentration at which the activity in the assay is half-maximal.

The assay has as its system Clostridioides difficile clinical isolate growth, OD600, 24 h. In words: C. difficile growth inhibition, confirmation, 4-point retest (AID 1224921).
For the compound `C[C@H]1CN([C@@H](C)CO)C(=O)c2cccc(NC(=O)Nc3ccccc3)c2O[C@H]1CN(C)C(=O)Nc1ccc(C(F)(F)F)cc1`, the half-maximal activity concentration (AC50) is 28.2 µM.
For the compound `COc1ccc(CN(C)C[C@@H]2OCCCC[C@H](C)Oc3ccc(NC(=O)Nc4ccc(C(F)(F)F)cc4)cc3C(=O)N([C@H](C)CO)C[C@H]2C)cc1`, the concentration at half-maximal activity (AC50) is 3.24 µM.
Regarding `O=C(C[C@H]1CC[C@@H]2[C@H](COC[C@@H](O)CN2C(=O)Nc2ccc(Cl)c(Cl)c2)O1)NCc1ccccc1`, the AC50 was 4.01 µM.
For `CCC(=O)N[C@@H]1CC[C@H](CCNC(=O)Nc2ccc(C(F)(F)F)cc2)O[C@H]1CO`, the AC50 was 7.27 µM.
As for `COc1ccccc1-c1ccc2c(c1)O[C@H](CN(C)C(=O)c1ccccc1)[C@H](C)CN([C@H](C)CO)S2(=O)=O`, the AC50 is > 60 µM (inactive).
Regarding `C[C@@H]1CCCCO[C@H](CN(C)Cc2ccccc2)[C@@H](C)CN([C@@H](C)CO)C(=O)c2cc(NC(=O)Nc3ccc(C(F)(F)F)cc3)ccc2O1`, the half-maximal activity concentration (AC50) was 12.5 µM.
For the compound `CCC(=O)Nc1ccc2c(c1)C(=O)N(C)C[C@@H](OC)[C@H](C)CN(C(=O)NC(C)C)[C@@H](C)CO2`, the AC50 is > 60 µM (inactive).
`O=C(C[C@H]1CC[C@@H]2[C@H](COC[C@@H](O)CN2C(=O)Nc2ccc(Cl)c(Cl)c2)O1)NC1CCC1`: the AC50 is 8.68 µM.
For the compound `CN(C)CC(=O)N[C@@H]1C=C[C@@H](CC(=O)NCCN2CCCCC2)O[C@H]1CO`, the AC50 is > 60 µM (inactive).
Regarding `COc1ccc(NC(=O)Nc2cccc3c2O[C@H](CN(C)Cc2ccc(C(F)(F)F)cc2)[C@H](C)CN([C@@H](C)CO)C3=O)cc1`, the AC50 was 15.9 µM.
Take `C[C@H]1CN([C@@H](C)CO)C(=O)c2cccc(NC(=O)Nc3ccc(C(F)(F)F)cc3)c2O[C@@H]1CN(C)C(=O)Nc1ccccc1`: the AC50 is 32.2 µM.
As to `C[C@H]1CCCCO[C@H](CN(C)CC2CC2)[C@@H](C)CN([C@@H](C)CO)C(=O)c2cc(NC(=O)Nc3ccc(C(F)(F)F)cc3)ccc2O1`, the AC50 is 5.12 µM.
For the compound `CO[C@@H](CN(C)C(=O)C1CC1)[C@H](C)CN(C(=O)Nc1ccc(C(F)(F)F)cc1)[C@@H](C)CO`, the concentration at half-maximal activity (AC50) is 3.04 µM.
On to `O=C(C[C@@H]1CC[C@@H]2[C@H](COC[C@@H](O)CN2C(=O)Nc2cc(Cl)cc(Cl)c2)O1)N1CCOCC1`, for which the concentration at half-maximal activity (AC50) was 14.2 µM.
As to `O=C(C[C@H]1CC[C@@H]2[C@H](COC[C@H](O)CN2C(=O)Nc2cc(Cl)cc(Cl)c2)O1)N1CCOCC1`, the AC50 is 9.61 µM.
To `COc1cccc(C#Cc2ccc([C@H]3[C@@H](CO)N(C(=O)C4CCCCC4)[C@H]3C#N)cc2)c1` belongs 19 µM; to `C[C@@H]1CN([C@@H](C)CO)C(=O)c2cc(NS(=O)(=O)c3ccc(Cl)cc3)ccc2O[C@@H](C)CCCCO[C@H]1CN(C)CC1CCCCC1`, 13.1 µM; to `CO[C@H](CN(C)C(=O)C1CCOCC1)[C@@H](C)CN(C(=O)Nc1ccc(C(F)(F)F)cc1)[C@@H](C)CO`, 3.16 µM.
For the compound `O=C(C[C@H]1CC[C@H]2[C@@H](COC[C@@H](O)CN2C(=O)Nc2ccc(Cl)c(Cl)c2)O1)NCc1ccc(Cl)cc1`, the half-maximal activity concentration (AC50) is 1.03 µM.
For the compound `O=C(NCC[C@H]1CC[C@@H](NC(=O)Nc2cc(F)ccc2F)[C@H](CO)O1)Nc1ccc(Cl)cc1`, the AC50 is 18.5 µM.
`O=C(C[C@@H]1CC[C@@H]2[C@H](COC[C@H](O)CN2C(=O)Nc2ccc(Cl)c(Cl)c2)O1)NC1CCC1`: the concentration at half-maximal activity (AC50) is 7.33 µM.
Regarding `CCCN(C)C[C@H]1OCCCC[C@@H](C)Oc2ccc(NC(=O)Nc3ccc(C(F)(F)F)cc3)cc2C(=O)N([C@@H](C)CO)C[C@H]1C`, the AC50 is 10.5 µM.
`C[C@@H]1CN([C@@H](C)CO)C(=O)Cc2cc(N(C)C)ccc2O[C@H]1CN(C)Cc1ccc(Oc2ccccc2)cc1`: the AC50 was 19.1 µM.
As for `C[C@@H]1CN([C@H](C)CO)C(=O)Cc2cc(NC(=O)CCCN(C)C)ccc2O[C@H]1CN(C)Cc1ccc(-c2ccccc2)cc1`, the AC50 is 19 µM.
To `CO[C@@H](CN(C)S(=O)(=O)c1cn(C)cn1)[C@H](C)CN(C(=O)Nc1ccc(C(F)(F)F)cc1)[C@@H](C)CO` belongs 2.44 µM; to `C[C@@H]1CN([C@@H](C)CO)C(=O)c2cc(NC(=O)Nc3ccc(C(F)(F)F)cc3)ccc2O[C@@H](C)CCCCO[C@H]1CN(C)CC1CCCCC1`, 4.9 µM.
In the case of `CC(=O)N[C@@H]1CC[C@@H](CCNC(=O)Nc2ccc(C(F)(F)F)cc2)O[C@H]1CO`, the half-maximal activity concentration (AC50) was 12.7 µM.
Turning to `COc1cccc(C#Cc2ccc3c(c2)O[C@@H](CN(C)C)[C@H](C)CN([C@H](C)CO)S3(=O)=O)c1`, the AC50 was 25.8 µM.
For `CCCNC(=O)C[C@H]1CC[C@@H]2[C@H](COC[C@H](O)CN2C(=O)Nc2ccc(Cl)c(Cl)c2)O1` the value was 3.77 µM; for `CCCNC(=O)N1[C@@H](C#N)[C@H](c2ccc(C#Cc3ccc(F)cc3)cc2)[C@@H]1CO`, 36.3 µM.
With `CO[C@H]1CN(C)C(=O)c2cc(NC(=O)Nc3cc(Cl)cc(Cl)c3)ccc2OC[C@H](C)NC[C@H]1C`, the half-maximal activity concentration (AC50) is 11.6 µM.
For `C[C@@H]1CCCCO[C@H](CN(C)CC2CC2)[C@H](C)CN([C@@H](C)CO)C(=O)c2cc(NC(=O)Nc3ccc(C(F)(F)F)cc3)ccc2O1`, the AC50 is 16 µM.
Take `CO[C@H]1CN(C)C(=O)c2cc(NC(C)=O)ccc2OC[C@@H](C)N(Cc2nccs2)C[C@@H]1C`: the AC50 was > 60 µM (inactive).
As to `O=C(C[C@@H]1CC[C@H]2[C@@H](COC[C@@H](O)CN2C(=O)Nc2cc(Cl)cc(Cl)c2)O1)N1CCCCC1`, the concentration at half-maximal activity (AC50) is 6.58 µM.
To `CO[C@@H]1CN(C)C(=O)c2cc(NC(=O)Nc3ccc(F)cc3)ccc2OC[C@@H](C)NC[C@@H]1C` belongs > 60 µM (inactive); to `CO[C@@H](CN(C)C(=O)C1CC1)[C@@H](C)CN(C(=O)Nc1ccc(C(F)(F)F)cc1)[C@@H](C)CO`, 3.31 µM; to `CO[C@@H]1CN(C)C(=O)c2cc(NC(=O)Nc3cc(Cl)cc(Cl)c3)ccc2OC[C@H](C)NC[C@H]1C`, 5.04 µM.
For `O=C(NCC[C@@H]1CC[C@H](NC(=O)c2cccnc2)[C@@H](CO)O1)Nc1ccc(C(F)(F)F)cc1`, the AC50 is 17 µM.
For `O=C(C[C@@H]1CC[C@H]2[C@@H](COC[C@@H](O)CN2C(=O)Nc2ccc(Cl)c(Cl)c2)O1)NCc1ccccc1`, the concentration at half-maximal activity (AC50) is 1.6 µM.
With `O=C(C[C@@H]1CC[C@@H]2[C@H](COC[C@H](O)CN2C(=O)Nc2ccc(C(F)(F)F)cc2)O1)NCCc1ccncc1`, the AC50 was 3.46 µM.
In the case of `C[C@@H]1CN([C@H](C)CO)C(=O)c2cccc(NC(=O)Nc3ccc(C(F)(F)F)cc3)c2O[C@@H]1CN(C)Cc1ccc(-c2ccccc2)cc1`, the AC50 is 18.3 µM.
Take `CO[C@H]1CN(C)C(=O)c2ccc(NC(=O)Nc3cc(Cl)cc(Cl)c3)cc2OC[C@@H](C)NC[C@@H]1C`: the AC50 was 15.9 µM.
As to `COc1ccc(CN(C)C[C@H]2OCCCC[C@@H](C)Oc3ccc(NC(=O)Nc4ccc(C(F)(F)F)cc4)cc3C(=O)N([C@@H](C)CO)C[C@@H]2C)cc1`, the AC50 is 4.74 µM.
On to `O=C(C[C@@H]1CC[C@@H]2[C@H](COC[C@@H](O)CN2C(=O)Nc2ccc(Cl)c(Cl)c2)O1)NCc1ccc(Cl)cc1`, for which the half-maximal activity concentration (AC50) is 0.98 µM.
To `O=C(C[C@@H]1CC[C@@H]2[C@H](COC[C@H](O)CN2C(=O)Nc2cc(Cl)cc(Cl)c2)O1)N1CCOCC1` belongs 6.6 µM; to `O=C(C[C@H]1CC[C@@H]2[C@H](COC[C@@H](O)CN2C(=O)Nc2ccc(Cl)c(Cl)c2)O1)NCc1ccc(F)cc1`, 2.15 µM; to `CO[C@H]1CN(C)C(=O)c2cc(NC(=O)Nc3ccc(Cl)c(Cl)c3)ccc2OC[C@H](C)NC[C@@H]1C`, 8.68 µM.
Consider `CNC(=O)C[C@@H]1CC[C@H]2[C@@H](COC[C@@H](O)CN2C(=O)Nc2ccc(Cl)c(Cl)c2)O1`, for which the AC50 was 11.9 µM.
For the compound `NC(=O)[C@@H]1[C@H]2C(=O)O[C@H](c3ccccc3)[C@H](c3ccccc3)N2[C@H](c2ccccc2OCCO)[C@@]12C(=O)Nc1ccccc12`, the AC50 was 32.8 µM.
On to `C[C@H](C(=O)N(C)C[C@@H]1OCc2ccccc2-c2ccccc2C(=O)N([C@H](C)CO)C[C@@H]1C)c1ccccc1`, for which the AC50 is > 60 µM (inactive).
On to `CCNC(=O)C[C@@H]1CC[C@H]2[C@@H](COC[C@@H](O)CN2C(=O)Nc2ccc(C(F)(F)F)cc2)O1`, for which the AC50 was 10.4 µM.
As for `O=C(C[C@H]1CC[C@H]2[C@@H](COC[C@H](O)CN2C(=O)Nc2ccc(Cl)c(Cl)c2)O1)NCc1ccc(Cl)cc1`, the concentration at half-maximal activity (AC50) was 1.07 µM.
Turning to `N#C[C@@H]1[C@H](c2ccc(C#Cc3ccc(F)cc3)cc2)[C@@H](CO)N1C(=O)C1CCCC1`, the AC50 was > 70 µM (inactive).
Turning to `C[C@@H]1CN([C@@H](C)CO)C(=O)c2cccc(NC(=O)Nc3ccc(C(F)(F)F)cc3)c2O[C@@H]1CN(C)Cc1ccc(-c2ccccc2)cc1`, the AC50 is under 0.5 µM.
Consider `CO[C@@H](CN(C)Cc1cc(F)ccc1F)[C@@H](C)CN(C(=O)Nc1ccc(C(F)(F)F)cc1)[C@H](C)CO`, for which the AC50 was 6.79 µM.
Turning to `C[C@@H]1CCCCO[C@@H](CN(C)Cc2ccccc2)[C@H](C)CN([C@@H](C)CO)C(=O)c2cc(NC(=O)Nc3ccc(F)cc3)ccc2O1`, the AC50 was > 16 µM (inactive).
Consider `CCC(=O)N[C@H]1CC[C@H](CCNC(=O)Nc2ccc(C(F)(F)F)cc2)O[C@@H]1CO`, for which the AC50 is 3.05 µM.
For `O=C(C[C@H]1CC[C@H]2[C@@H](COC[C@@H](O)CN2C(=O)Nc2ccc(Cl)c(Cl)c2)O1)NCc1ccc(F)cc1`, the concentration at half-maximal activity (AC50) is 1.36 µM.
Turning to `C[C@@H]1CN([C@@H](C)CO)C(=O)Cc2cc(NS(C)(=O)=O)ccc2O[C@H]1CN(C)Cc1ccc(Cl)c(Cl)c1`, the AC50 is 8.49 µM.
`O=C(C[C@H]1CC[C@H]2[C@@H](COC[C@@H](O)CN2C(=O)c2cnccn2)O1)NCc1ccc(Cl)cc1`: the AC50 was > 60 µM (inactive).
Take `C[C@H]1CN([C@@H](C)CO)C(=O)CCCn2nncc2CO[C@@H]1CN(C)C(=O)Nc1ccc(C(F)(F)F)cc1`: the concentration at half-maximal activity (AC50) was 17.7 µM.
For the compound `O=C(C[C@@H]1CC[C@H]2[C@@H](COC[C@H](O)CN2C(=O)Nc2cc(Cl)cc(Cl)c2)O1)N1CCOCC1`, the AC50 is 17.6 µM.
Consider `C[C@@H]1CN([C@H](C)CO)C(=O)c2cc(C#CCc3ccccc3)cnc2O[C@H]1CN(C)CC1CCCC1`, for which the AC50 was 31 µM.
As for `C[C@H](CO)N1C[C@H](C)[C@H](CN(C)C(=O)Nc2cccc3ccccc23)Oc2c(NC(=O)Nc3ccc(C(F)(F)F)cc3)cccc2C1=O`, the AC50 was 31.7 µM.
Take `C[C@H](CO)N1C[C@H](C)[C@@H](CN(C)CC2CCCCC2)OCCCC[C@H](C)Oc2ccc(NC(=O)Nc3ccc(C(F)(F)F)cc3)cc2C1=O`: the half-maximal activity concentration (AC50) is 13.6 µM.
